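Results reflect a 48-hour exposure of cells in 96-well plates to compound at five concentrations. Abbreviation: GI50, concentration required for 50% inhibition of growth.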 Activity calls are given as the source filed them. Cut-off read from the data, not from the text of the source: active = GI50 up to about 1.1 µM and inactive = higher.
Assays:
Assay in all cases: growth of human tumour cells (NCI), 48 h
COLO 205 = system: COLO 205
SK-MEL-28 = system: SK-MEL-28
ACHN = system: ACHN
HCT-116 = system: HCT-116
SF-539 = system: SF-539
HCC 2998 = system: HCC 2998
OVCAR-4 = system: OVCAR-4
SNB-75 = system: SNB-75
SK-OV-3 = system: SK-OV-3
DMS-273 = system: DMS-273
Malme-3M = system: Malme-3M
U-251 = system: U-251
NCI-H23 = system: NCI-H23
DLD-1 = system: DLD-1
CAKI-1 = system: CAKI-1
SF-295 = system: SF-295
TK-10 = system: TK-10
HT-29 = system: HT-29
OVCAR-5 = system: OVCAR-5
RPMI-8226 = system: RPMI-8226

| SMILES | GI50 (COLO 205) | GI50 (SK-MEL-28) | GI50 (ACHN) | GI50 (HCT-116) | GI50 (SF-539) | GI50 (HCC 2998) | GI50 (OVCAR-4) | GI50 (SNB-75) | GI50 (SK-OV-3) | GI50 (DMS-273) | GI50 (Malme-3M) | GI50 (U-251) | GI50 (NCI-H23) | GI50 (DLD-1) | GI50 (CAKI-1) | GI50 (SF-295) | GI50 (TK-10) | GI50 (HT-29) | GI50 (OVCAR-5) | GI50 (RPMI-8226) |
| --- | --- | --- | --- | --- | --- | --- | --- | --- | --- | --- | --- | --- | --- | --- | --- | --- | --- | --- | --- | --- |
| CCCCOC(=O)CN1C(=O)c2ccccc2C1=O | > 100 µM (inactive) | > 100 µM (inactive) | > 100 µM (inactive) | > 100 µM (inactive) | > 100 µM (inactive) | > 100 µM (inactive) | > 100 µM (inactive) | > 100 µM (inactive) | > 100 µM (inactive) | > 100 µM (inactive) | > 100 µM (inactive) | > 100 µM (inactive) | > 100 µM (inactive) | > 100 µM (inactive) | 84.5 µM (inactive) | > 100 µM (inactive) | > 100 µM (inactive) | > 100 µM (inactive) | > 100 µM (inactive) | – |
| CCC1=NC(C(F)(F)F)(C(F)(F)F)N=C(N2CCOCC2)O1 | > 100 µM (inactive) | > 100 µM (inactive) | > 100 µM (inactive) | > 100 µM (inactive) | > 100 µM (inactive) | > 100 µM (inactive) | > 100 µM (inactive) | > 100 µM (inactive) | > 100 µM (inactive) | – | – | > 100 µM (inactive) | > 100 µM (inactive) | – | 34.5 µM (inactive) | > 100 µM (inactive) | > 100 µM (inactive) | > 100 µM (inactive) | > 100 µM (inactive) | > 100 µM (inactive) |
| CCOc1ccc(C(C)c2cc3c(cc2OC)OCO3)cc1 (centres undefined) | – | – | 0.897 µM (active) | 0.371 µM (active) | 0.271 µM (active) | 0.466 µM (active) | > 100 µM (inactive) | 0.277 µM (active) | 0.32 µM (active) | 0.245 µM (active) | 0.457 µM (active) | 0.38 µM (active) | 0.267 µM (active) | 0.377 µM (active) | 0.834 µM (active) | 0.0828 µM (active) | 0.353 µM (active) | 0.237 µM (active) | 65.5 µM (inactive) | 0.427 µM (active) |

— ChEMBL document CHEMBL1201862, “PubChem BioAssay data set” (2004)
